Experimental data taken from patent publication EP1897542A1, “Aqueous formulation comprising an antitumor agent” (Sanofi-Aventis, priority 2006, dated 2008).

How the values were obtained:
[1] = In vivo study in dogs with phosphate buffer formulation, 30-minute infusion (Example 6); set-up: species or system beagle dog; conditions: 0.1M phosphate buffer, single IV infusion over 30 minutes, 1 male and 1 female
Procedure: Dosages were 25 and 50 mg/kg. Sampling for plasma level determination was taken for 1 day at the following intervals: end of infusion (0), 30 minutes, 1 hour, 3 hours, 6 hours, and 24 hours after the end of the infusion.

[2] = Preliminary animal toxicological studies, infusion of simple phosphate buffer formulation; type: in vivo; conditions: infused at 10 mg/mL or greater as a simple phosphate buffer formulation
Text: (2R)-2-[4-(7-Bromo-2-quinolyloxy)phenoxy]propanoic acid may be administered as a liquid parenteral formulation. […] Since significant hemolysis can cause anemia, the hemolytic effect of (2R)-2-[4-(7-bromo-2-quinolyloxy)phenoxy]propanoic acid is an undesirable property for a pharmaceutical composition.

dog erythrocytes [3] = assay: In vitro hemolytic potential with dog erythrocytes, phosphate buffer vehicle (Example 1); type: cell-based; conditions: 10 and 20 mg/mL solutions in 0.1 M pH 8 phosphate buffer
Procedure: (§1) The following study was performed to evaluate the hemolytic potential of solutions of (2R)-2-[4-(7-bromo-2-quinolyloxy)phenoxy]propanoic acid in a 0.1 M pH 8 phosphate bufferred vehicle at concentrations of 10 mg/mL and 20 mg/mL. Saline (0.9% NaCl) was used as a negative control, and saponin (3% aqueous solution), which is a known inducer of hemolysis, was used as the positive control.
(§2) Dog whole blood was mixed in a 1:1 ratio and a 9:1 ratio with solutions of the active ingredient in the vehicle and with the vehicles alone. Dog whole blood was also mixed in a 1:1 ratio and a 9:1 ratio with a 3% saponin solution as the positive control and saline (0.9% NaCl) as the negative control.
(§3) After mixing, tubes were incubated for 30 minutes at 37°C, then centrifuged (3000 t/min.) for 10 minutes. Hemoglobin concentrate was dosed in the supernatant by spectrophotometry UV/visible (Genesis technologies) for the assessment of the in vitro hemolytic potential. The percent of hemolysis was calculated based on the results of the saponin samples.

[4] = as above; type: cell-based; conditions: dog, whole blood, n=5 (mean), percentage of that induced by saponin
Procedure: as §1, §2, §3

[5] = In vivo study in rats with phosphate buffer formulation, 1-hour infusion (Example 7); conditions: 400 mg/kg dose, 0.1M phosphate buffer, single IV infusion over 1 hour, day of the infusion
Procedure: Dosages were 0 (control), 100, 200, and 400 mg/kg.

dog erythrocytes [6] = assay: In vitro hemolytic potential in dog erythrocytes for a formulation containing a cyclodextrin (Example 4); type: cell-based; conditions: 10 mg/mL Active Ingredient in 0.05M pH 7 phosphate buffer with 10% (w/v) hydroxypropyl beta cyclodextrin, n=6 (mean), percentage of that induced by saponin, 30 min
Procedure: Saline (0.9% NaCl) was used as the negative control, and saponin (3% aqueous solution) was used as the positive control.
as §2, §3

## C[C@@H](Oc1ccc(Oc2ccc3ccc(Br)cc3n2)cc1)C(=O)O [Active Ingredient, (2R)-2-[4-(7-bromo-2-quinolyloxy)phenoxy]propanoic acid]
[1]; 25 mg/kg, seen at time 0 and 30 minutes post infusion (all animals), 1 hour (male)
  visual hemolysis on plasma samples: visual hemolysis was observed
[1]; 50 mg/kg, seen at time 0, 30 minutes, 1 hour, 3 hours (both animals) and 6 hours (female)
  visual hemolysis on plasma samples: visual hemolysis was observed
[2]
  hemolysis: cause a degree of hemolysis
Dog erythrocytes [3]
  hemolysis of dog erythrocytes (result in words): induced hemolysis
[4]; pH 8, 10 mg/mL Active Ingredient in 0.1 M pH 8 phosphate buffer, Blood/Solution ratio 1:1
  hemolysis at 0.5 h: 24%
[4]; pH 8, 10 mg/mL Active Ingredient in 0.1 M pH 8 phosphate buffer, Blood/Solution ratio 9:1
  hemolysis at 0.5 h: 4.5%
[4]; pH 8, 20 mg/mL Active Ingredient in 0.1 M pH 8 phosphate buffer, Blood/Solution ratio 1:1
  hemolysis at 0.5 h: 28%
[4]; pH 8, 20 mg/mL Active Ingredient in 0.1 M pH 8 phosphate buffer, Blood/Solution ratio 9:1
  hemolysis at 0.5 h: 6.6%
[5]; females
  discolored urine (red/brown), animals affected: 8 out of 10
[5]; males
  discolored urine (red/brown), animals affected: 6 out of 10
Dog erythrocytes [6]; Blood/Solution ratio 1:1
  Percentage of Hemolysis: 1.8%
Dog erythrocytes [6]; Blood/Solution ratio 9:1
  Percentage of Hemolysis: 0.5%
